According to patent publication US5770688A, “Method and composition for the treatment of mammalian HIV infection” (GSF-Forschungszentrum fur Umwelt und Gesundheit GmbH, priority 1989, dated 1998):

Columns and labels:
[1] = tested on: Rausher leukemia virus; conditions: 2 weeks
Method: The size of the spleen is taken as a measure of the progress of the disease which eventually leads to the death of the infected animals.
The test of the antiviral effect of the melittin (Seq. ID NO:1) principle was carried out on Balb C mice (12 weeks old; all males). The animals were kept in numbers of 4 per cage. The animals were infected by Rausher leukemia virus (10^5 infectious particles (viruses) per animal in a volume of 0.2 ml) by intraperitoneal injection (ip) followed by subcutaneous injection of the test substance after 10 minutes. The animals were divided into two groups referred to as controls (receiving a sham injection of saline) or test animals (receiving the melittin analogue).
The peptide was dissolved as 100 μg/ml and the controls as well as the test animals were injected with the same volume subcutaneously (0.1 ml) of PBS or PBS+test substance respectively. The injection was carried out 10 minutes after injection of the infectious virus. After 2 days the animals received a new injection of melittin analogue (10 μg/mg body weight) or PBS as a subcutaneous injection of 0.100 ml. After 4 days from the first injection a third injection was performed using 20 μg/mg body weight of melittin analogue.

[2] = tested on: HIV-infected LC5 cells; test: MTT toxicity/killing of HIV infected cells (Biomek 1000); format: cell-based, human
Method: The KE37-1 (uninfected) and KE37-1/111β (infected) cell lines discussed below are commercially available from the Dr. Robert Gallows Laboratory of the NIH in the United States of America and grown in a medium of RPMI 1640 (GIBCO) and further supplemented with 10% fetal calf serum which contained approximately 100 units of penicillin, 100 μg streptomycin, and approximately 0.25 μg fungizone (Amphotericin B) per milliliter. The human mesenchymal cell lines LC5 and LC5-HIV, discussed below, are deposited with the Collection De L'Institut Pasteur of Paris, France on Mar. 9, 1989 and given the accession numbers I-842 and I-843, respectively. The LC5 and LC5-HIV cell lines were grown in a medium of RPMI 1640 and supplemented with 10% fetal calf serum.
(§1) A series of experiments and which are illustrated graphically in FIGS. 6 through 34, respectively, were designed to detect two extremes. In particular the tests were designed to detect the inhibition of viral release and/or the release of virus which has a reduced ability to infect other cells. This reduced ability to infect other cells is represented, for example, by glycosylation inhibitors, the direct effect on virus release is represented by acylation inhibitors, RT inhibitors and melittin (Seq. ID NO:1). The most important feature of this experimental design, however, is to detect the toxicity of melittin. The present experiments were carried out on both the astrocytoma cell line LC5-HIV (cloned infected cells) and T-lymphocytoma cell line KE37-1/IIIβ (cloned infected cells with HTLV-IIIβ). In both cases the results were essentially identical.
(§2) In the present series of experiments HIV release was tested by a fully automated laboratory robot system and which is manufactured by Beckman Instruments as the Biomek 1000. This system performed the following steps. First, chronically infected cells (cloned) are plated in microtiter plates and grown for a period of seven days. They are then challenged by melittin (Seq. ID NO:1) during this period either for the final day or throughout the period as shown in the figures. The number of living cells are quantified by MTT, that is by a metabolic (dehydrogenase) test. The MTT test is automatically performed. The toxic effect is detected at the time of the experiment and not in a separate control experiment. Furthermore, the supernatant, and which contains released virus cells from the period of time which elapsed from the last wash, and which may vary from 24 hours to 7 days, is collected from the culture, and an aliquot is saved for virus quantification by employing antigen or viral enzyme reverse transcriptase (RT). Furthermore, an aliquot is added to a culture of uninfected cells in microtiter plates for subsequent measurement of the ability of the virus cells to reinfect these uninfected cells. In this regard, the number of infected cells is automatically quantified by an immunoperoxidase staining technique. The test results, as shown, are expressed in terms of toxicity of the melittin (MTT test); the release of HIV from the primary culture (RT test); and the ability of the released virus to infect previously uninfected cells.

[3] = tested on: HIV; test: HIV release from chronically infected cells (Biomek 1000); format: cell-based; conditions: for inhibition of viral cell (HIV) release from infected cells, in words: FIGS. 6-19; for overall effect, in words: FIGS. 20-29
Excerpt: as §1, §2

Substance	inhibition of growth / survival of infected cells, in words [2]	inhibition of viral cell (HIV) release from infected cells, in words [3]	overall effect, in words [3]	other results
Gly-Ile-Gly-Ala-Val-Leu-Lys-Val-Leu-Thr-Thr-Gly-Leu-Pro-Ala-Leu-Ile-Ser-Trp-Ile-Gly-Gly-Gly-Gly-Gly-Gly [melittin (1-20)-6-(Gly)-Amide]	inhibited the growth of infected cells	inhibited HIV release	–	animals with spleens greater than 150 mg but lower than 170 mg (borderline) [1]: 25%; infected animals that do not develop disease [1]: 75%; number of animals with pathological spleen [1]: one; spleen weight of the rest of the test group [1]: 100 to 150 mg
MHC: MHC (Seq. ID NO:10), (MAJOR histocompatibility complex sequence) (VAAKANRVADEIRHKREKLE) [reference compound]	–	–	do not have any readily apparent effects	–
Melittin COOH: Melittin COOH was tested and appeared to be less efficient than the melittin amid	–	–	–	efficiency compared with melittin amid [3]: less efficient than the melittin amid
control peptide: HOLST peptide (negative control); no apparent structural similarity to melittin (FAESGVDTPVFNSY) [reference compound]	–	–	without effect	–
mastoparan [reference compound]	–	–	do not have any readily apparent effects	–
melittin 1-20: melittin 1-20 (Seq. ID NO:7) lacks the cell binding part of the molecule	inhibited the growth of infected cells	inhibited HIV release as did the natural melittin and melittin (1-20)-6-(Gly)-Amide	–	–
